Assay results published in patent publication US20100022521A1, “COMPOUNDS” (Hansa Metallwerke AG, priority 2005, published 2010).

Target: mGluR5 (UniProt P31424)
Assay: MGluR5 receptor binding test ([3H]-M-MPEP displacement)
Set-up: species or system rat
Conditions: radioligand [3H]-M-MPEP (2 nM); species not given; read-out: mGlu5 Ki
Procedure: MGluR5 Receptor Binding Tests
Rat cerebro-cortical membrane preparation was used to determine the binding characteristics of reference compounds and novel compounds to the rat mGluR5. The A18 cell line expressing hmGluR5a (purchased from Euroscreen) was used to determine binding characteristics of the chemical compounds to the human mGluR5a receptor. As radioligand [3H]-M-MPEP (2 nM) was used. The nonspecific binding was determined in the presence of 10 μM M-MPEP.

Ki [nM]	Structure (SMILES)
500 to 1500	O=[N+]([O-])c1cnc2sc(S(=O)(=O)c3ccc(Cl)cc3)c(-c3ccc(Cl)cc3)c2c1 [Compound 72, 2-(4-chloro-benzenesulfonyl)-3-(4-chloro-phenyl)-5-nitro-thieno[2,3-b]pyridine]
< 500	CC1CCN(c2c(S(=O)(=O)c3ccc(Cl)cc3)sc3ncc(O)cc23)CC1 [Compound 107]
< 500	Cc1ccc(-c2c(S(=O)(=O)c3cccc(C)c3)sc3ncccc23)cc1 [Compound 26]
> 1500	O=S(=O)(c1ccc(Cl)cc1)c1sc2ncccc2c1N1CC[S+]([O-])CC1 [Compound 117]
> 1500	CS(=O)(=O)c1ccc(-c2c(S(=O)(=O)c3ccc(Cl)cc3)sc3ncccc23)cc1 [Compound 108]
< 500	Nc1cnc2sc(S(=O)(=O)c3ccc(Cl)cc3)c(-c3cccc(F)c3)c2c1 [Compound 115, 5-Amino-2-(4-chloro-benzenesulfonyl)-3-(3-fluor-phenyl)-thieno[2,3-b]pyridine]
< 500	Cc1ccc(S(=O)(=O)c2sc3nc(Cl)ccc3c2-c2ccc(Cl)cc2)cc1F [Compound 81]
> 1500	CC(=O)N1CCN(c2c(S(=O)(=O)c3ccc(Cl)cc3)sc3ncccc23)CC1 [Compound 105]
< 500	Nc1ccnc2sc(S(=O)(=O)c3ccc(Cl)cc3)c(-c3ccc(Cl)cc3)c12 [Compound 125, 4-Amino-2-(4-chloro-benzenesulfonyl)-3-(4-chloro-phenyl)-thieno[2,3-b]pyridine]
< 500	Cc1ccc(S(=O)(=O)c2sc3ncccc3c2-c2ccc(Cl)cc2)cc1Cl [Compound 63]
< 500	O=S(=O)(c1ccc(Cl)cc1)c1sc2ncccc2c1-c1cccc(Cl)c1 [Compound 60]
< 500	CC1CCN(c2c(S(=O)(=O)c3ccc(Cl)cc3)sc3ncccc23)CC1 [Compound 94]
< 500	Cc1cc(C)cc(S(=O)(=O)c2sc3ncccc3c2-c2ccc(Cl)cc2)c1 [Compound 44]
500 to 1500	O=S(=O)(c1ccccc1Cl)c1sc2ncccc2c1-c1ccc(Cl)cc1 [Compound 6]
> 1500	CN1CCN(C(=O)Nc2c(S(=O)(=O)c3ccc(Cl)cc3)sc3ncccc23)CC1 [Compound 122]
< 500	N#Cc1cccc(S(=O)(=O)c2sc3nc(F)ccc3c2-c2ccc(Cl)cc2)c1 [Compound 65]
< 500	Cc1cccc(S(=O)(=O)c2sc3ncccc3c2-c2ccc(Cl)cc2)c1 [Compound 22]
< 500	O=S(=O)(c1ccc(C(F)(F)F)cc1)c1sc2ncccc2c1-c1ccc(Cl)cc1 [Compound 68]
< 500	N#Cc1cccc(-c2c(S(=O)(=O)c3cccc(C#N)c3)sc3ncccc23)c1 [Compound 66]
< 500	N#Cc1cc(F)cc(S(=O)(=O)c2sc3ncccc3c2-c2ccc(F)cc2)c1 [Compound 30]
> 1500	CNC(=O)Nc1c(S(=O)(=O)c2ccc(Cl)cc2)sc2ncccc12 [Compound 112]
< 500	O=S(=O)(c1cc(F)cc(C(F)(F)F)c1)c1sc2ncccc2c1-c1ccc(Cl)cc1 [Compound 34]
< 500	CN1CCN(c2c(S(=O)(=O)c3ccc(Cl)cc3)sc3ncccc23)CC1 [Compound 106]
500 to 1500	O=S(=O)(c1ccc(Cl)cc1)c1sc2nccc(O)c2c1-c1ccc(Cl)cc1 [Compound 103, 2-(4-chloro-benzenesulfonyl)-3-(4-chloro-phenyl)-4-hydroxy-thieno[2,3-b]pyridine]
< 500	O=S(=O)(c1ccc(Cl)cc1)c1sc2ncccc2c1-c1cccc(F)c1 [Compound 109]
500 to 1500	N#CC1CCN(c2c(S(=O)(=O)c3ccc(Cl)cc3)sc3ncccc23)CC1 [Compound 93]
< 500	COc1ccc(S(=O)(=O)c2sc3ncccc3c2-c2ccc(F)cc2)cc1F [Compound 126]
< 500	O=S(=O)(c1ccc(Cl)cc1)c1sc2ncccc2c1-c1ccccc1F [Compound 114]
500 to 1500	O=S(=O)(c1ccc(Cl)cc1)c1sc2ncccc2c1N1CCC(O)CC1 [Compound 99]
< 500	N#Cc1ccc(S(=O)(=O)c2sc3ncccc3c2-c2cccc(Cl)c2)cc1 [Compound 42]

The next lines start with the molecule.

Structure (SMILES)	Ki [nM]
N#Cc1cc(F)cc(S(=O)(=O)c2sc3ncccc3c2-c2cccc(F)c2)c1 [Compound 110, 2-(3-Cyano-5-fluoro-benzenesulfonyl)-3-(3-fluoro-phenyl)-thieno[2,3-b]pyridine]	< 500
CN(C)c1c(S(=O)(=O)c2ccc(Cl)cc2)sc2ncccc12 [Compound 100]	< 500
Cc1ccc(S(=O)(=O)c2sc3ncccc3c2-c2ccc(Cl)cc2)cc1C [Compound 62]	< 500
O=S(=O)(c1ccc(Cl)cc1)c1sc2nccc(Cl)c2c1-c1ccc(Cl)cc1 [Compound 57, 4-Chloro-2-(4-chloro-benzenesulfonyl)-3-(4-chloro-phenyl)-thieno[2,3-b]pyridine]	< 500
COc1ccnc2sc(S(=O)(=O)c3ccc(Cl)cc3)c(-c3ccc(Cl)cc3)c12 [Compound 101, 2-(4-chloro-benzenesulfonyl)-3-(4-chloro-phenyl)-4-methoxy-thieno[2,3-b]pyridine]	< 500
Cc1ccc(-c2c(S(=O)(=O)c3ccc(C)cc3)sc3ncccc23)cc1 [Compound 27]	< 500
O=S(=O)(c1ccc(Cl)cc1)c1sc2nc(Cl)ccc2c1-c1ccc(Cl)cc1 [Compound 43, 6-chloro-2-(4-chloro-benzenesulfonyl)-3-(4-chloro-phenyl)-thieno[2,3-b]pyridine]	< 500
N#Cc1cc(F)cc(S(=O)(=O)c2sc3nc(Cl)ccc3c2-c2ccc(Cl)cc2)c1 [Compound 86, 2-(3-Cyano-5-fluoro-benzenesulfonyl)-3-(4-chloro-phenyl)-6-chloro-thieno[2,3-b]pyridine]	< 500
CN(C)c1ccc2c(-c3ccc(Cl)cc3)c(S(=O)(=O)c3ccc(Cl)cc3)sc2n1 [Compound 47, 2-(4-Chloro-benzenesulfonyl)-3-(4-chloro-phenyl)-6-dimethylamino-thieno[2,3-b]pyridine]	500 to 1500
COc1ccc(S(=O)(=O)c2sc3ncccc3c2-c2cccc(F)c2)cc1F [Compound 127]	< 500
CC1CCCN(c2c(S(=O)(=O)c3cccc(C#N)c3)sc3ncccc23)C1 (stereo not drawn) [Compound 32]	< 500
Cc1ccc(S(=O)(=O)c2sc3ncccc3c2-c2ccc(Cl)cc2)cc1F [Compound 39]	< 500
N#Cc1ccc(-c2c(S(=O)(=O)c3cccc(C#N)c3)sc3ncccc23)cc1 [Compound 69]	< 500
Cc1cccc(S(=O)(=O)c2sc3ncccc3c2-c2ccc(F)cc2)c1 [Compound 61]	< 500
O=S(=O)(c1ccc(Cl)cc1)c1sc2ncc(Cl)cc2c1-c1ccc(Cl)cc1 [Compound 97, 5-Chloro-2-(4-chloro-benzenesulfonyl)-3-(4-chloro-phenyl)-thieno[2,3-b]pyridine]	< 500
N#Cc1cc(F)cc(S(=O)(=O)c2sc3nc(F)ccc3c2-c2cccc(F)c2)c1 [Compound 139]	< 500
CC1CCN(c2c(S(=O)(=O)c3ccc(Cl)cc3)sc3nc(Cl)ccc23)CC1 [Compound 119]	< 500
O=S(=O)(c1ccc(Cl)cc1)c1sc2ncccc2c1N1CCN(c2ccc(F)cc2)CC1 [Compound 118]	> 1500

Structure (SMILES)	Ki [nM]
N#Cc1cc(F)cc(S(=O)(=O)c2sc3ncccc3c2-c2ccccc2F)c1 [Compound 132]	< 500
CC(C)c1ccc(S(=O)(=O)c2sc3ncccc3c2-c2ccc(Cl)cc2)cc1 [Compound 88]	< 500
O=S(=O)(c1ccc(Cl)cc1)c1sc2ncccc2c1-c1ccc(F)cc1F [Compound 130]	< 500
O=S(=O)(c1ccc(Cl)cc1)c1sc2ncccc2c1N1CCC(CO)CC1 [Compound 140]	< 500
CC1CCN(c2c(S(=O)(=O)c3ccc(Cl)cc3)sc3ncc(N)cc23)CC1 [Compound 104, 5-Amino-2-(4-chloro-benzenesulfonyl)-3-(4-methyl-piperidine)-thieno[2,3-b]pyridine]	< 500
Cc1ccc(-c2c(S(=O)(=O)c3cccc(Cl)c3)sc3ncccc23)cc1 [Compound 37]	< 500
COc1ccc2c(-c3ccc(Cl)cc3)c(S(=O)(=O)c3cccc(C#N)c3)sc2n1 [Compound 64, 2-(3-Cyano-benzenesulfonyl)-3-(4-chloro-phenyl)-6-methoxy-thieno[2,3-b]pyridine]	< 500
O=S(=O)(c1ccc(Cl)cc1)c1sc2nc(F)ccc2c1-c1ccc(Cl)cc1 [Compound 58]	< 500
O=S(=O)(c1cccc(Cl)c1)c1sc2ncccc2c1-c1ccc(F)cc1 [Compound 54]	< 500
O=S(=O)(c1ccc(Cl)cc1)c1sc2ncccc2c1-c1ccc(Cl)c(Cl)c1 [Compound 41]	< 500
N#Cc1cc(F)cc(S(=O)(=O)c2sc3nc(Cl)ccc3c2-c2cccc(F)c2)c1 [Compound 138]	< 500
O=S(=O)(c1cccc(F)c1)c1sc2nc(Cl)ccc2c1-c1ccc(Cl)cc1 [Compound 76]	500 to 1500
Nc1ccc2c(-c3ccc(Cl)cc3)c(S(=O)(=O)c3ccc(Cl)cc3)sc2n1 [Compound 49, 6-Amino-2-(4-chloro-benzenesulfonyl)-3-(4-chloro-phenyl)-thieno[2,3-b]pyridine]	< 500
CS(=O)(=O)Nc1cnc2sc(S(=O)(=O)c3ccc(Cl)cc3)c(-c3ccc(Cl)cc3)c2c1 [Compound 85, N-[2-(4-Chloro-benzenesulfonyl)-3-(4-chloro-phenyl)-thieno[2,3-b]pyridin-5-yl]-methanesulfonamide]	< 500
N#Cc1cccc(S(=O)(=O)c2sc3nc(Cl)ccc3c2-c2ccc(F)cc2)c1 [Compound 74]	< 500
CN(C)c1ccc(S(=O)(=O)c2sc3ncccc3c2-c2ccc(Cl)cc2)cc1 [Compound 71]	< 500
O=S(=O)(c1ccc(Cl)cc1)c1sc2ncc(F)cc2c1-c1cccc(F)c1 [Compound 137, 2-(4-Chloro-benzenesulfonyl)-3-(3-fluoro-phenyl)-5-fluoro-thieno[2,3-b]pyridine]	< 500
O=S(=O)(c1ccc(Cl)cc1)c1sc2ncccc2c1N1CCCC1 [Compound 129]	< 500
